As usually defined, the IC50 is the concentration that gives 50% inhibition.

IC50 data for 1 molecule are collected here from patent EP2047849A1 (KTB Tumorforschungsgesellschaft mbH, priority 2007, dated 2009).

Assay in all cases: 33PanQinase Activity Assay (in vitro protein kinase activity assay)
What all share (format): biochemical
What all share (details): recombinant purified kinase, 1 µM [γ-33P]-ATP

One assay deals with T1, Aurora B (Homo sapiens, UniProt Q96GD4).
T1 construct: made in house; host or cells: Sf9 insect cells (baculovirus)
The procedure:
(§1) Inhibition of protein kinases by compounds was measured in proprietary protein kinase activity assay (^33PanQinase® Activity Assay) using recombinant purified protein kinases. All protein kinases were expressed in Sf9 insect cells as recombinant GST-fusion proteins or His-tagged proteins by means of the baculovirus expression system. All kinases were produced from human cDNAs. Kinases were purified by affinity chromatography using either GSH-agarose (Sigma) or Ni-NTH-agarose (Qiagen). The purity of the protein kinases was examined by SDS-PAGE/Coomassie staining. Activity was measured by determination of the incorporation of radio labelled phosphate into a substrate. The reaction cocktails for all enzymes contained 60 mM HEPES-NaOH, 10 mM Tris/HCl, pH 7.5, 20 mM NaCl, 3 mM MgCl2, 3 mM MnCl2, 3 µM Na-orthovanadate, 2 mM DTT, 4% glycerol, 1 µM [γ-^33P]-ATP (approx. 6 x 10^5 cpm per well), protein kinase , and substrate. Table 1: Protein kinases inhibited with high potency in vitro by compound PQ-012, PQ-013, PQ-014, PQ-016, PQ-041, PQ-042.

The target in the next assay is T2, CHK2 (Homo sapiens, UniProt O96017).
T2 construct: made in house; host or cells: Sf9 insect cells (baculovirus)
The procedure:
as §1

The target of another assay is T3, MAP4K4 (Homo sapiens, UniProt O95819).
T3 construct: made in house; host or cells: Sf9 insect cells (baculovirus)
The procedure:
as §1

For the next assay, the target named is T4, PLK4 (Homo sapiens, UniProt O00444).
T4 construct: made in house; host or cells: Sf9 insect cells (baculovirus)
T4 sequence (O00444 1-970): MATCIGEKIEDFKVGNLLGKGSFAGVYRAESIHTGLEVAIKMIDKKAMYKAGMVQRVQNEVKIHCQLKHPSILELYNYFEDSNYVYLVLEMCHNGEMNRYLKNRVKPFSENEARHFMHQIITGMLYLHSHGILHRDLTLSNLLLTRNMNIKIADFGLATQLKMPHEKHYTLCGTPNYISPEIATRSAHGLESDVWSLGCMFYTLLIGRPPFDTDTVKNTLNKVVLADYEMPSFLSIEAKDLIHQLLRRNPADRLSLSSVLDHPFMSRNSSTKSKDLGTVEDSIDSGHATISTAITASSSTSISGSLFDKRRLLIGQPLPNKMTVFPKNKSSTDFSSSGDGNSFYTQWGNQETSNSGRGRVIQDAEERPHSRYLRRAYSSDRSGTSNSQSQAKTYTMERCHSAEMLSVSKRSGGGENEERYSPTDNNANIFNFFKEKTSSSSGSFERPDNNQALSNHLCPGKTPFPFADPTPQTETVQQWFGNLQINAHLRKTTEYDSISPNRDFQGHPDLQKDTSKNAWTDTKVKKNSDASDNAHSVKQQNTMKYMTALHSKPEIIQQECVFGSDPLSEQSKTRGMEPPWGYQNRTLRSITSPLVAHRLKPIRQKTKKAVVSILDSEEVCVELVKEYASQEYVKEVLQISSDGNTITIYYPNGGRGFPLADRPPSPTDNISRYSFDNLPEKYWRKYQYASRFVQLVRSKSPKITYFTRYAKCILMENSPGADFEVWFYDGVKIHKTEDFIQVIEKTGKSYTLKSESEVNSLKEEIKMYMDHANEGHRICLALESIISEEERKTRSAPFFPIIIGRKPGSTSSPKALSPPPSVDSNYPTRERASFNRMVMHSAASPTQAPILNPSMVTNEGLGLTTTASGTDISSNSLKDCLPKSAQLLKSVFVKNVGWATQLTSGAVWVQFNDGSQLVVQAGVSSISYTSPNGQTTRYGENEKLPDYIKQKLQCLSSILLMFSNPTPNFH
The procedure:
as §1

The target of the next assay is T5, PRKG2 (Homo sapiens, UniProt Q13237).
T5 construct: made in house; host or cells: Sf9 insect cells (baculovirus)
T5 sequence (Q13237 1-762): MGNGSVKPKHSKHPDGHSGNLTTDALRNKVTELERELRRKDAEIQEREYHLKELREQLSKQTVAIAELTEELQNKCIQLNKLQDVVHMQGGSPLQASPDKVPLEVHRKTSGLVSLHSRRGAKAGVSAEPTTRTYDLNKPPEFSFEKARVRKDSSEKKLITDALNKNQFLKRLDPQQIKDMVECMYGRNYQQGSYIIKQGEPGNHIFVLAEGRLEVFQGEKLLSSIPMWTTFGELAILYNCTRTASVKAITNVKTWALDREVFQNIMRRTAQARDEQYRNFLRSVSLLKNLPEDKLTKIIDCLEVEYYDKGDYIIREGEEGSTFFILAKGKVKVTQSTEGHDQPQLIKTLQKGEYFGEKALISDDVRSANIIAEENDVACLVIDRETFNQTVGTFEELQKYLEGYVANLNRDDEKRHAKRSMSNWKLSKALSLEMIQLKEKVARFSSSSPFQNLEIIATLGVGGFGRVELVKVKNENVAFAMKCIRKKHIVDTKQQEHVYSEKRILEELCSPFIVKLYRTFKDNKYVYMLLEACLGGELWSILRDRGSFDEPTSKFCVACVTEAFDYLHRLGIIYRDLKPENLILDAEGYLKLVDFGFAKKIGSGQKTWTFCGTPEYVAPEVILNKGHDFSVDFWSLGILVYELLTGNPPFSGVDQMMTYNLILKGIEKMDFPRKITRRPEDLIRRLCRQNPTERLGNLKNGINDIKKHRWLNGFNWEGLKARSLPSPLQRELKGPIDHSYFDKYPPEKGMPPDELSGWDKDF
The protocol:
as §1

Another assay deals with T6, RSK3 (Homo sapiens, UniProt Q15349).
T6 construct: made in house; host or cells: Sf9 insect cells (baculovirus)
The procedure:
as §1

T6 sequence (Q15349 whole entry): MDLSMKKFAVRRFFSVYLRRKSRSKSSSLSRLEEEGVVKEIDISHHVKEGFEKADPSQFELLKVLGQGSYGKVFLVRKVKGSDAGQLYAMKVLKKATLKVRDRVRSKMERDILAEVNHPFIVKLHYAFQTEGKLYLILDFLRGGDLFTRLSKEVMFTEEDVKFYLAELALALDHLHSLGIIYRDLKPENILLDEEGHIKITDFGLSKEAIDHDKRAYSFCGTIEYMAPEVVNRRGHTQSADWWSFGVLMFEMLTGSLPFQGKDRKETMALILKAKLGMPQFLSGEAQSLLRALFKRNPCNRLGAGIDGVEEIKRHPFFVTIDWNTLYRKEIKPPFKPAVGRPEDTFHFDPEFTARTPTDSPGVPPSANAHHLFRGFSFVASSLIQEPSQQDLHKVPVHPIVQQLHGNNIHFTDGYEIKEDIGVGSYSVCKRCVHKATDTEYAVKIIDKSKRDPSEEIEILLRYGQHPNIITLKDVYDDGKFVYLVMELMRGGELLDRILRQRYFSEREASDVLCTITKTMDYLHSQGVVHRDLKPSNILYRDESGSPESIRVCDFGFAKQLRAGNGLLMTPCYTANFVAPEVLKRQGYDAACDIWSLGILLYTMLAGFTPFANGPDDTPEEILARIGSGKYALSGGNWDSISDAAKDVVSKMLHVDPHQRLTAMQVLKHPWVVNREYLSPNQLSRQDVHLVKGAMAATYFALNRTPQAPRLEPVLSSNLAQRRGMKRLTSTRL
T2 sequence (O96017 whole entry): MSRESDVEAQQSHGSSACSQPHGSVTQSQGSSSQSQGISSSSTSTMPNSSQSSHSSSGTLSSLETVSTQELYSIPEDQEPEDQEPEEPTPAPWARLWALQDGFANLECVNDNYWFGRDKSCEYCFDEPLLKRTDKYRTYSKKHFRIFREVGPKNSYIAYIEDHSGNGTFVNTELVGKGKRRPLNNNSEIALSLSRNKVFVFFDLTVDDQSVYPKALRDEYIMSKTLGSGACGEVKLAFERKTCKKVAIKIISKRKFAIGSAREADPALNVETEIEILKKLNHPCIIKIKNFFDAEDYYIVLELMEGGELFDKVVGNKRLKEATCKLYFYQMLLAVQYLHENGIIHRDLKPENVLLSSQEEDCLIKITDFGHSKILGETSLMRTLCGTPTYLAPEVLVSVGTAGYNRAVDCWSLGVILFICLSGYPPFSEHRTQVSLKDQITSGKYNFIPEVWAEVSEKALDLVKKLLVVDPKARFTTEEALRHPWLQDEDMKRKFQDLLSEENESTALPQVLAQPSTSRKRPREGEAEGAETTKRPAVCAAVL
T1 sequence (Q96GD4 whole entry): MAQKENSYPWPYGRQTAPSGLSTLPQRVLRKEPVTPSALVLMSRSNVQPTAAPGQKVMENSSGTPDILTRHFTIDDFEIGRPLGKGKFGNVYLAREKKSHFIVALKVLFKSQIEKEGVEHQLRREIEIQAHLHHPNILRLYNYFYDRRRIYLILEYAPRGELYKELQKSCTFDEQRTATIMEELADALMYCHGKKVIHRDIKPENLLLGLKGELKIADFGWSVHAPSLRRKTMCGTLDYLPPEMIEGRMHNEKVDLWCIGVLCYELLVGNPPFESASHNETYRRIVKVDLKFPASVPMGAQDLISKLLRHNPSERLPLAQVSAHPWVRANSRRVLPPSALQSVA
T3 sequence (O95819 whole entry): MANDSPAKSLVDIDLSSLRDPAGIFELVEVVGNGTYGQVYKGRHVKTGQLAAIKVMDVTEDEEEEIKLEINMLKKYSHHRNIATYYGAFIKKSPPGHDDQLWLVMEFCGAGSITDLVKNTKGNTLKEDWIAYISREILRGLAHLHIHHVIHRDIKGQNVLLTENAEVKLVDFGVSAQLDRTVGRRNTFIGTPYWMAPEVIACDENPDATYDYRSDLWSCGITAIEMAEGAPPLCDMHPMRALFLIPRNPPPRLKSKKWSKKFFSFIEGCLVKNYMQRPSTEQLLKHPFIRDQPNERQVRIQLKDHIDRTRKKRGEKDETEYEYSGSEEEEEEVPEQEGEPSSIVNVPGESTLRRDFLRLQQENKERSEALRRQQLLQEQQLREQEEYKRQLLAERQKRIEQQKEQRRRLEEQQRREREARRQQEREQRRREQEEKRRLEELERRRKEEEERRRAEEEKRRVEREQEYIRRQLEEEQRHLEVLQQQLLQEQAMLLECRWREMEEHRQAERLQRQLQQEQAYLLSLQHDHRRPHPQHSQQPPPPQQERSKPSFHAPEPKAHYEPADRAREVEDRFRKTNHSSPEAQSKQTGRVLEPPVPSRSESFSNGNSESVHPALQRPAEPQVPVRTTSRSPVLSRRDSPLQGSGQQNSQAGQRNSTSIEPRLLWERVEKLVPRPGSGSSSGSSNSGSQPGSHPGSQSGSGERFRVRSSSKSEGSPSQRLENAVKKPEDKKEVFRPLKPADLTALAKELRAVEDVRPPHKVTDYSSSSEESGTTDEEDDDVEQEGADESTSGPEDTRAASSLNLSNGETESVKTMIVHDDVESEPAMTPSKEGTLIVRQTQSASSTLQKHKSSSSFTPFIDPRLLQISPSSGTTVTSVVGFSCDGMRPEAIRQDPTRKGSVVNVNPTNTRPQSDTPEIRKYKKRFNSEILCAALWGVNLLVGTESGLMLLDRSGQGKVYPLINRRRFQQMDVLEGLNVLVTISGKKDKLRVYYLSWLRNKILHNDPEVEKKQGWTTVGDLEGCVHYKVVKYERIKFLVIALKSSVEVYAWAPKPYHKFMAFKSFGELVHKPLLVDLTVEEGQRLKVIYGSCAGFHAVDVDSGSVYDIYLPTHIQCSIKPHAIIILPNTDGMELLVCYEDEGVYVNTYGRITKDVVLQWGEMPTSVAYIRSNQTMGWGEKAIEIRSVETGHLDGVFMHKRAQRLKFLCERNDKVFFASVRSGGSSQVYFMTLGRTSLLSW

Consider `COc1ccc2[nH]c3c(c4c(c5c6cc(OC)ccc6n(C)c35)C(=O)NC4=O)c2c1` [PQ-013, 6,7,12,13-Tetrahydro-3,9-dimethoxy-12-methyl-5,7 dioxo-5H-indolo [2,3-a] pyrrolo [3,4-c]-carbazole], for which the IC50 turned out to be 210 nM at Aurora B; 40 nM on CHK2; 35 nM on MAP4K4; 180 nM on PLK4; 67 nM on PRKG2; 170 nM on RSK3.
